One experiment deals with AQP2. Briefly: kidney slices: AQP2 localisation by confocal laser scanning after stimulation. It counts as cell-based, mice. The note with it: slices of vital tissue from murine C57BL-6 kidneys, 45 minutes of stimulation. The procedure: By the technique of “kidney slices”, thin slices of vital tissue from murine C57BL-6 kidneys have been obtained which, maintained in culture medium and appropriate atmosphere, have been stimulated with agonists able to increase the intracellular levels of cAMP (forskolin and vasopressin) and with the agonist of murine BRL37344 BAR3. After 45 minutes of stimulation the tissues have been fixed, marked for AQP2 and observed by confocal laser scanning.

For experiment [1], the system named is conditional knockout mice for AVPR2. Kind of experiment: diuresis and urine osmolality in the animal model of X-linked nephrogenic diabetes insipidus (metabolic cage). The class given is in vivo. The procedure: At one hour from the injection of the compound, the diuresis of the treated mice is set to zero compared to control animals.
In the mouse affected by nephrogenic diabetes insipidus (X-NDI) for conditional deletion of the AVPR2 receptor, the compound BRL37344 has been administered by intraperitoneal injection at the dosage of 0.6 mg/Kg. Five animals received the compound whereas as many control animals received the vehicle only (physiological saline). The cumulative diuresis has been measured in metabolic cage in both animal groups.
The data obtained are in line with a transient effect induced by the stimulation of the renal BAR3 receptors by BRL37344.

[2] abbreviates: X-NDI animal model, summary statement, no time point.
[3] abbreviates: X-NDI mice, 0.6 mg/Kg intraperitoneal, second hour after injection, vs control group, acetic acid sodium hydrate, 0.6 mg/kg.

“Also recorded” adds a separate entry of the source.

Consider `NC(=O)CC[C@@H]1NC(=O)[C@H](Cc2ccccc2)NC(=O)[C@H](Cc2ccc(O)cc2)NC(=O)[C@@H](N)CSSC[C@@H](C(=O)N2CCC[C@H]2C(=O)N[C@@H](CCCN=C(N)N)C(=O)NCC(N)=O)NC(=O)[C@H](CC(N)=O)NC1=O` [Vasopressin, vasopressin], for which the “apical membrane expression (repositioning) of AQP2” value with AQP2 is recorded as “translocates AQP2 on the apical membrane of the tubular cells”.
Turning to `C[C@H](Cc1ccc(OCC(=O)O)cc1)NC[C@H](O)c1cccc(Cl)c1.O.[Na]` (relative stereo) [BRL37344, (±)-(R*,R*)-[4-[2-[[2-(3-Chlorophenyl)-2-hydroxyethyl]amino]propyl]phenoxy] acetic acid sodium hydrate], the diuresis result in experiment [1] (setting [2]) was “drastic reduction of diuresis”. The urine osmolality entry in experiment [1] (setting [2]) was “increase of urine osmolality”; in experiment [1] (setting [3]), “significantly increased”; in experiment [1] (X-NDI mice, 0.6 mg/Kg intraperitoneal, third hour after injection, vs control group, acetic acid sodium hydrate, 0.6 mg/kg) it was “tendency to increase although not statistically significant; also recorded: on average higher although not statistically different from that of the control group”. Besides, the cumulative diuresis entry in experiment [1] (X-NDI mice, 0.6 mg/Kg intraperitoneal, end of third hour after injection, vs control group, acetic acid sodium hydrate, 0.6 mg/kg) was “still drastically reduced; also recorded: still remained statistically lower than that of the control group”; in experiment [1] (X-NDI mice, 0.6 mg/Kg intraperitoneal, first hour after injection, vs control group), “set to zero”; in experiment [1] (setting [3]), “drastically reduced; also recorded: statistically reduced compared to the control group”. In the experiment on AQP2 (acetic acid sodium hydrate), the “apical membrane expression (repositioning) of AQP2” value was “able to increase the apical levels of AQP2 with an effect comparable to that produced by vasopressin; also recorded: determines a repositioning of the marking of AQP2 on the apical membrane”.
